Laboratory results: patent US20250163104A1, “MACROCYCLIC IMMUNOMODULATORS” (priority 2021, published 2025)
*1 amine or outer side, *2 acyl side, *3 side chain or, on linkers, in order; H or OH if unused. Where a SMILES comes first, the peptide text is derived from it. Bridges are numbered along the chain shown (N, C = ends). [ ]: non-standard residue; d: D form. Bip(4'-COOH) = N[C@@H](Cc1ccc(-c2ccc(C(=O)O)cc2)cc1)C(=O)O; X5 = O=C([C@H](Cc1ccc2ncccc2c1)N[*:1])[*:2]; Bip = N[C@@H](Cc1ccc(-c2ccccc2)cc1)C(=O)O; Phe(4-NH2) = Nc1ccc(C[C@H](N)C(=O)O)cc1; 3Pal = N[C@@H](Cc1cccnc1)C(=O)O; 4Pal = N[C@@H](Cc1ccncc1)C(=O)O; Cha = N[C@@H](CC1CCCCC1)C(=O)O; Orn = NCCC[C@H](N)C(=O)O; Dab = NCC[C@H](N)C(=O)O; Dap = NC[C@H](N)C(=O)O

biological target: T1, human PD-1 / PD-L1-Ig binding on Jurkat cell line over-expressing human PD-1 (Jurkat-PD-1) (Homo sapiens, UniProt Q15116); experiment: Jurkat-PD-1 Cell Binding High-Content Screening Assay (CBA); type: cell-based; conditions: Jurkat-PD-1 cells, PE-labeled PD-L1-Ig 20 nM final; read-out: Jurkat HPD1_PDL1 IC50
T1 construct: expressed in transfected cells; host or cells: Jurkat
How it was run: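 Compounds were preincubated with Jurkat-hPD-1 cells in DMEM plus 10% fetal calf serum for 2 h at 37° C. Phycoerythrin-labeled PD-L1-Ig (20 nM final) was then added for 1 hour. Cells were fixed in 4% paraformaldehyde with Hoechst 33342, and bound fluorescence was quantified by high-content imaging.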

T1 sequence (Q15116 25-288): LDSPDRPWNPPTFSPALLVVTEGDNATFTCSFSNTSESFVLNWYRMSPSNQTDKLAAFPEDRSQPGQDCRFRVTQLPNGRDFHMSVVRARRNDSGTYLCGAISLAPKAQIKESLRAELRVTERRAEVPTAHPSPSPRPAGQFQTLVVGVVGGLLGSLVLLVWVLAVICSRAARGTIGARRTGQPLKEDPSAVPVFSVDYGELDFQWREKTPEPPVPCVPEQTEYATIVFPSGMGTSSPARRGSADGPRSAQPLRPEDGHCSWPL

| Compound | IC50 [nM] |
| --- | --- |
| CC(C)C[C@H]1NC(=O)[C@H](CCCN)NC(=O)[C@H](CCC(=O)O)NC(=O)[C@H](Cc2ccc(-c3ccccc3)cc2)NC(=O)[C@H](C(C)C)NC(=O)[C@H](Cc2c[nH]c3ccccc23)NC(=O)[C@H](CC(=O)O)NC(=O)[C@H](Cc2ccc(-c3ccc(C(=O)O)cc3)cc2)NC(=O)[C@H](Cc2ccccc2)NC(=O)CSC[C@@H](C(=O)N[C@@H](C)C(N)=O)NC(=O)[C@H]([C@@H](C)O)NC(=O)[C@H](C(C)C)NC(=O)[C@H](CC2CCCCC2)NC(=O)[C@H](CCN)NC1=O [Compound 2167] ({CH2CO}-F[Bip(4'-COOH)]DWV[Bip]E[Orn][dL][Dab][Cha]VTCA-NH2; thioether N-14) | 17.2 |
| CC(C)C[C@H]1NC(=O)[C@H](CCCN)NC(=O)[C@H](CCC(=O)O)NC(=O)[C@H](Cc2ccc(-c3ccccc3)cc2)NC(=O)[C@H](C(C)C)NC(=O)[C@H](Cc2c[nH]c3ccccc23)NC(=O)[C@H](CC(=O)O)NC(=O)[C@H](Cc2ccc(-c3ccc(C(=O)O)cc3)cc2)NC(=O)[C@H](Cc2ccc(OCC(=O)O)cc2)NC(=O)CSC[C@@H](C(=O)N[C@@H](C)C(N)=O)NC(=O)[C@H]([C@@H](C)O)NC(=O)[C@H](C(C)C)NC(=O)[C@H](CC2CCCCC2)NC(=O)[C@H](CCN)NC1=O [Compound 2168] | 19.6 |
| CC(C)C[C@H]1NC(=O)[C@H](CCCN)NC(=O)[C@H](CCC(=O)O)NC(=O)[C@H](Cc2ccc(-c3ccccc3)cc2)NC(=O)[C@H](C(C)C)NC(=O)[C@H](Cc2c[nH]c3ccccc23)NC(=O)[C@H](CC(=O)O)NC(=O)[C@H](Cc2ccc(-c3ccc(C(=O)O)cc3)cc2)NC(=O)[C@H](Cc2ccncc2)NC(=O)CSC[C@@H](C(=O)N[C@@H](C)C(N)=O)NC(=O)[C@H]([C@@H](C)O)NC(=O)[C@H](C(C)C)NC(=O)[C@H](CC2CCCCC2)NC(=O)[C@H](CCN)NC1=O [Compound 2169] | 40.8 |
| CC(C)C[C@H]1NC(=O)[C@H](CCCN)NC(=O)[C@H](CCC(=O)O)NC(=O)[C@H](Cc2ccc(-c3ccccc3)cc2)NC(=O)[C@H](C(C)C)NC(=O)[C@H](Cc2c[nH]c3ccccc23)NC(=O)[C@H](CC(=O)O)NC(=O)[C@H](Cc2cccnc2)NC(=O)[C@H](CC(N)=O)NC(=O)CSC[C@@H](C(=O)N[C@@H](C)C(N)=O)NC(=O)[C@H]([C@@H](C)O)NC(=O)[C@H](C(C)C)NC(=O)[C@H](CC2CCCCC2)NC(=O)[C@H](CCN)NC1=O [Compound 2170] ({CH2CO}-N[3Pal]DWV[Bip]E[Orn][dL][Dab][Cha]VTCA-NH2; thioether N-14) | 5.4 |
| CC(C)C[C@H]1NC(=O)[C@H](CCCN)NC(=O)[C@H](CCC(=O)O)NC(=O)[C@H](Cc2ccc(-c3ccccc3)cc2)NC(=O)[C@H](C(C)C)NC(=O)[C@H](Cc2c[nH]c3ccccc23)NC(=O)[C@H](CC(=O)O)NC(=O)[C@H](Cc2cccnc2)NC(=O)[C@H](Cc2ccccc2)NC(=O)CSC[C@@H](C(=O)N[C@@H](C)C(N)=O)NC(=O)[C@H]([C@@H](C)O)NC(=O)[C@H](C(C)C)NC(=O)[C@H](CC2CCCCC2)NC(=O)[C@H](CCN)NC1=O [Compound 2171] ({CH2CO}-F[3Pal]DWV[Bip]E[Orn][dL][Dab][Cha]VTCA-NH2; thioether N-14) | 19.1 |
| CC(C)C[C@H]1NC(=O)[C@H](CCCN)NC(=O)[C@H](CCC(=O)O)NC(=O)[C@H](Cc2ccc(-c3ccccc3)cc2)NC(=O)[C@H](C(C)C)NC(=O)[C@H](Cc2c[nH]c3ccccc23)NC(=O)[C@H](CC(=O)O)NC(=O)[C@H](Cc2cccnc2)NC(=O)[C@H](CN)NC(=O)CSC[C@@H](C(=O)N[C@@H](C)C(N)=O)NC(=O)[C@H]([C@@H](C)O)NC(=O)[C@H](C(C)C)NC(=O)[C@H](CC2CCCCC2)NC(=O)[C@H](CCN)NC1=O [Compound 2172] ({CH2CO}-[Dap][3Pal]DWV[Bip]E[Orn][dL][Dab][Cha]VTCA-NH2; thioether N-14) | 23.7 |
| CC(C)C[C@H]1NC(=O)[C@H](CCCN)NC(=O)[C@H](CCC(=O)O)NC(=O)[C@H](Cc2ccc(-c3ccccc3)cc2)NC(=O)[C@H](C(C)C)NC(=O)[C@H](Cc2c[nH]c3ccccc23)NC(=O)[C@H](CC(=O)O)NC(=O)[C@H](Cc2cccnc2)NC(=O)[C@H](Cc2ccc(OCC(=O)O)cc2)NC(=O)CSC[C@@H](C(=O)N[C@@H](C)C(N)=O)NC(=O)[C@H]([C@@H](C)O)NC(=O)[C@H](C(C)C)NC(=O)[C@H](CC2CCCCC2)NC(=O)[C@H](CCN)NC1=O [Compound 2173] | 16.8 |
| CC(C)C[C@H]1NC(=O)[C@H](CCCN)NC(=O)[C@H](CCC(=O)O)NC(=O)[C@H](Cc2ccc(-c3ccccc3)cc2)NC(=O)[C@H](C(C)C)NC(=O)[C@H](Cc2c[nH]c3ccccc23)NC(=O)[C@H](CC(=O)O)NC(=O)[C@H](Cc2cccnc2)NC(=O)[C@H](Cc2ccncc2)NC(=O)CSC[C@@H](C(=O)N[C@@H](C)C(N)=O)NC(=O)[C@H]([C@@H](C)O)NC(=O)[C@H](C(C)C)NC(=O)[C@H](CC2CCCCC2)NC(=O)[C@H](CCN)NC1=O [Compound 2174] ({CH2CO}-[4Pal][3Pal]DWV[Bip]E[Orn][dL][Dab][Cha]VTCA-NH2; thioether N-14) | 17.7 |
| CC(C)C[C@H]1NC(=O)[C@H](CCCN)NC(=O)[C@H](CCC(=O)O)NC(=O)[C@H](Cc2ccc(-c3ccccc3)cc2)NC(=O)[C@H](C(C)C)NC(=O)[C@H](Cc2c[nH]c3ccccc23)NC(=O)[C@H](CC(=O)O)NC(=O)[C@H](Cc2ccc3ncccc3c2)NC(=O)[C@H](CC(N)=O)NC(=O)CSC[C@@H](C(=O)N[C@@H](C)C(N)=O)NC(=O)[C@H]([C@@H](C)O)NC(=O)[C@H](C(C)C)NC(=O)[C@H](CC2CCCCC2)NC(=O)[C@H](CCN)NC1=O [Compound 2175] ({CH2CO}-N[X5]DWV[Bip]E[Orn][dL][Dab][Cha]VTCA-NH2; thioether N-14) | 69.4 |
| CC(C)C[C@H]1NC(=O)[C@H](CCCN)NC(=O)[C@H](CCC(=O)O)NC(=O)[C@H](Cc2ccc(-c3ccccc3)cc2)NC(=O)[C@H](C(C)C)NC(=O)[C@H](Cc2c[nH]c3ccccc23)NC(=O)[C@H](CC(=O)O)NC(=O)[C@H](Cc2ccc3ncccc3c2)NC(=O)[C@H](Cc2ccccc2)NC(=O)CSC[C@@H](C(=O)N[C@@H](C)C(N)=O)NC(=O)[C@H]([C@@H](C)O)NC(=O)[C@H](C(C)C)NC(=O)[C@H](CC2CCCCC2)NC(=O)[C@H](CCN)NC1=O [Compound 2176] ({CH2CO}-F[X5]DWV[Bip]E[Orn][dL][Dab][Cha]VTCA-NH2; thioether N-14) | 111 |
| CC(C)C[C@H]1NC(=O)[C@H](CCCN)NC(=O)[C@H](CCC(=O)O)NC(=O)[C@H](Cc2ccc(-c3ccccc3)cc2)NC(=O)[C@H](C(C)C)NC(=O)[C@H](Cc2c[nH]c3ccccc23)NC(=O)[C@H](CC(=O)O)NC(=O)[C@H](Cc2ccc3ncccc3c2)NC(=O)[C@H](CN)NC(=O)CSC[C@@H](C(=O)N[C@@H](C)C(N)=O)NC(=O)[C@H]([C@@H](C)O)NC(=O)[C@H](C(C)C)NC(=O)[C@H](CC2CCCCC2)NC(=O)[C@H](CCN)NC1=O [Compound 2177] ({CH2CO}-[Dap][X5]DWV[Bip]E[Orn][dL][Dab][Cha]VTCA-NH2; thioether N-14) | 128 |
| CC(C)C[C@H]1NC(=O)[C@H](CCCN)NC(=O)[C@H](CCC(=O)O)NC(=O)[C@H](Cc2ccc(-c3ccccc3)cc2)NC(=O)[C@H](C(C)C)NC(=O)[C@H](Cc2c[nH]c3ccccc23)NC(=O)[C@H](CC(=O)O)NC(=O)[C@H](Cc2ccc3ncccc3c2)NC(=O)[C@H](Cc2ccc(OCC(=O)O)cc2)NC(=O)CSC[C@@H](C(=O)N[C@@H](C)C(N)=O)NC(=O)[C@H]([C@@H](C)O)NC(=O)[C@H](C(C)C)NC(=O)[C@H](CC2CCCCC2)NC(=O)[C@H](CCN)NC1=O [Compound 2178] | 52.7 |
| CC(C)C[C@H]1NC(=O)[C@H](CCCN)NC(=O)[C@H](CCC(=O)O)NC(=O)[C@H](Cc2ccc(-c3ccccc3)cc2)NC(=O)[C@H](C(C)C)NC(=O)[C@H](Cc2c[nH]c3ccccc23)NC(=O)[C@H](CC(=O)O)NC(=O)[C@H](Cc2ccc3ncccc3c2)NC(=O)[C@H](Cc2ccncc2)NC(=O)CSC[C@@H](C(=O)N[C@@H](C)C(N)=O)NC(=O)[C@H]([C@@H](C)O)NC(=O)[C@H](C(C)C)NC(=O)[C@H](CC2CCCCC2)NC(=O)[C@H](CCN)NC1=O [Compound 2179] ({CH2CO}-[4Pal][X5]DWV[Bip]E[Orn][dL][Dab][Cha]VTCA-NH2; thioether N-14) | 65.1 |
| CC(C)C[C@H]1NC(=O)[C@H](CCCN)NC(=O)[C@H](CCC(=O)O)NC(=O)[C@H](Cc2ccc(-c3ccccc3)cc2)NC(=O)[C@H](C(C)C)NC(=O)[C@H](Cc2c[nH]c3ccccc23)NC(=O)[C@H](CC(=O)O)NC(=O)[C@H](Cc2ccc(N)cc2)NC(=O)[C@H](CC(N)=O)NC(=O)CSC[C@@H](C(=O)N[C@@H](C)C(N)=O)NC(=O)[C@H]([C@@H](C)O)NC(=O)[C@H](C(C)C)NC(=O)[C@H](CC2CCCCC2)NC(=O)[C@H](CCN)NC1=O [Compound 2180] ({CH2CO}-N[Phe(4-NH2)]DWV[Bip]E[Orn][dL][Dab][Cha]VTCA-NH2; thioether N-14) | 28.1 |
| CC(C)C[C@H]1NC(=O)[C@H](CCCN)NC(=O)[C@H](CCC(=O)O)NC(=O)[C@H](Cc2ccc(-c3ccccc3)cc2)NC(=O)[C@H](C(C)C)NC(=O)[C@H](Cc2c[nH]c3ccccc23)NC(=O)[C@H](CC(=O)O)NC(=O)[C@H](Cc2ccc(N)cc2)NC(=O)[C@H](Cc2ccccc2)NC(=O)CSC[C@@H](C(=O)N[C@@H](C)C(N)=O)NC(=O)[C@H]([C@@H](C)O)NC(=O)[C@H](C(C)C)NC(=O)[C@H](CC2CCCCC2)NC(=O)[C@H](CCN)NC1=O [Compound 2181] ({CH2CO}-F[Phe(4-NH2)]DWV[Bip]E[Orn][dL][Dab][Cha]VTCA-NH2; thioether N-14) | 26.4 |
| CC(C)C[C@H]1NC(=O)[C@H](CCCN)NC(=O)[C@H](CCC(=O)O)NC(=O)[C@H](Cc2ccc(-c3ccccc3)cc2)NC(=O)[C@H](C(C)C)NC(=O)[C@H](Cc2c[nH]c3ccccc23)NC(=O)[C@H](CC(=O)O)NC(=O)[C@H](Cc2ccc(N)cc2)NC(=O)[C@H](CN)NC(=O)CSC[C@@H](C(=O)N[C@@H](C)C(N)=O)NC(=O)[C@H]([C@@H](C)O)NC(=O)[C@H](C(C)C)NC(=O)[C@H](CC2CCCCC2)NC(=O)[C@H](CCN)NC1=O [Compound 2182] | 16 |
